The results in this text go back to the NIST ThermoML archive (doi:10.1016/j.jct.2015.11.025).

Each structure is given as a SMILES string. Numbers after ± are expanded uncertainties.

For data set [1] the following is noted: Crystal.
A short description of data set [2]: Molar enthalpy of transition or fusion. The settings on record: Crystal; DSC.

Broadly, the mass density is mass per unit of volume. `CCOC(=O)Cc1c(C(=O)OCC)sc(N)c1C#N`: the mass density in data set [1] (298.15 K, 101.33 kPa, flotation method) amounted to 1297 ± 2 kg/m3. In addition, the Normal melting temperature in data set [1] (DTA) amounted to 136.90 ± 1.1 °C. In data set [2], the “Molar enthalpy of transition or fusion” value turned out to be 9.77 ± 0.263 kcal/mol.
